Where “and” joins values, the source holds several entries; their conditions need not be identical. Equal values may be shown once. ± gives the expanded uncertainty stated by the source.
Details: Liquid, Alternating current cell with electrodes

## CCCCCCCC[n+]1ccn(C)c1.F[B-](F)(F)F [1-methyl-3-octylimidazolium tetrafluoroborate]
273.23 K, 101.33 kPa
  electrical conductivity: 0.00961 ± 0.00058 S/m
273.37 K, 101.33 kPa
  electrical conductivity: 0.00973 S/m and 0.00997 S/m
278.15 K, 101.33 kPa
  electrical conductivity: 0.0144 S/m and 0.0148 S/m
283.15 K, 101.33 kPa
  electrical conductivity: 0.0211 S/m and 0.0218 S/m and 0.0212 S/m
288.15 K, 101.33 kPa
  electrical conductivity: 0.0303 S/m and 0.0305 S/m
288.16 K, 101.33 kPa
  electrical conductivity: 0.0312 ± 0.0019 S/m
293.15 K, 101.33 kPa
  electrical conductivity: 0.0435 S/m and 0.0423 S/m
293.16 K, 101.33 kPa
  electrical conductivity: 0.0427 ± 0.0026 S/m
298.15 K, 100 kPa
  electrical conductivity: 0.0587 ± 0.0036 S/m
298.15 K, 101.33 kPa
  electrical conductivity: 0.0584 S/m [middle of 5 runs]
298.15 K, 24500 kPa
  electrical conductivity: 0.0441 ± 0.0027 S/m
298.15 K, 49500 kPa
  electrical conductivity: 0.0333 ± 0.002 S/m
298.15 K, 73500 kPa
  electrical conductivity: 0.0257 ± 0.0016 S/m
298.15 K, 98400 kPa
  electrical conductivity: 0.0197 ± 0.0012 S/m
298.15 K, 122900 kPa
  electrical conductivity: 0.0152 ± 0.00093 S/m
298.15 K, 147100 kPa
  electrical conductivity: 0.012 ± 0.00073 S/m
298.15 K, 171600 kPa
  electrical conductivity: 0.00941 ± 0.00058 S/m
298.15 K, 196100 kPa
  electrical conductivity: 0.00742 ± 0.00046 S/m
298.16 K, 101.33 kPa
  electrical conductivity: 0.058 ± 0.0035 S/m
303.15 K, 101.33 kPa
  electrical conductivity: 0.076 S/m and 0.0794 S/m and 0.0775 S/m
308.15 K, 101.33 kPa
  electrical conductivity: 0.0992 S/m and 0.104 S/m and 0.102 S/m
313.15 K, 101.33 kPa
  electrical conductivity: 0.127 S/m and 0.131 S/m and 0.132 S/m
318.15 K, 101.33 kPa
  electrical conductivity: 0.16 S/m and 0.165 S/m and 0.167 S/m
323.11 K, 101.33 kPa
  electrical conductivity: 0.198 S/m and 0.205 S/m
323.13 K, 101.33 kPa
  electrical conductivity: 0.2 ± 0.012 S/m
323.15 K, 100 kPa
  electrical conductivity: 0.203 ± 0.013 S/m
323.15 K, 24500 kPa
  electrical conductivity: 0.162 ± 0.0099 S/m
323.15 K, 49300 kPa
  electrical conductivity: 0.13 ± 0.0079 S/m
323.15 K, 73500 kPa
  electrical conductivity: 0.106 ± 0.0064 S/m
323.15 K, 98100 kPa
  electrical conductivity: 0.0853 ± 0.0052 S/m
323.15 K, 122600 kPa
  electrical conductivity: 0.0695 ± 0.0042 S/m
323.15 K, 147600 kPa
  electrical conductivity: 0.0567 ± 0.0034 S/m
323.15 K, 171600 kPa
  electrical conductivity: 0.0468 ± 0.0028 S/m
323.15 K, 196100 kPa
  electrical conductivity: 0.0386 ± 0.0024 S/m
328.15 K, 101.33 kPa
  electrical conductivity: 0.244 S/m and 0.252 S/m
328.19 K, 101.33 kPa
  electrical conductivity: 0.246 ± 0.015 S/m
333.11 K, 101.33 kPa
  electrical conductivity: 0.304 ± 0.018 S/m
333.12 K, 101.33 kPa
  electrical conductivity: 0.294 ± 0.018 S/m
333.16 K, 101.33 kPa
  electrical conductivity: 0.298 ± 0.018 S/m
338.12 K, 101.33 kPa
  electrical conductivity: 0.355 ± 0.021 S/m
338.2 K, 101.33 kPa
  electrical conductivity: 0.353 S/m and 0.364 S/m
343.16 K, 101.33 kPa
  electrical conductivity: 0.42 ± 0.025 S/m
343.2 K, 101.33 kPa
  electrical conductivity: 0.416 S/m and 0.43 S/m
348.15 K, 100 kPa
  electrical conductivity: 0.486 ± 0.029 S/m
348.15 K, 24500 kPa
  electrical conductivity: 0.406 ± 0.025 S/m
348.15 K, 49000 kPa
  electrical conductivity: 0.339 ± 0.021 S/m
348.15 K, 73500 kPa
  electrical conductivity: 0.287 ± 0.017 S/m
348.15 K, 98400 kPa
  electrical conductivity: 0.242 ± 0.015 S/m
348.15 K, 122600 kPa
  electrical conductivity: 0.206 ± 0.012 S/m
348.15 K, 147100 kPa
  electrical conductivity: 0.175 ± 0.011 S/m
348.15 K, 171600 kPa
  electrical conductivity: 0.149 ± 0.009 S/m
348.15 K, 196100 kPa
  electrical conductivity: 0.128 ± 0.0077 S/m
348.16 K, 101.33 kPa
  electrical conductivity: 0.485 ± 0.029 S/m
348.17 K, 101.33 kPa
  electrical conductivity: 0.502 ± 0.03 S/m
348.24 K, 101.33 kPa
  electrical conductivity: 0.494 ± 0.03 S/m
353.15 K, 101.33 kPa
  electrical conductivity: 0.561 S/m and 0.581 S/m
353.21 K, 101.33 kPa
  electrical conductivity: 0.572 ± 0.034 S/m

## CCCCCCCC[n+]1ccn(C)c1.F[P-](F)(F)(F)(F)F [1-octyl-3-methylimidazolium hexafluorophosphate]
273.2 K, 101.33 kPa
  electrical conductivity: 0.00325 ± 0.0002 S/m
273.22 K, 101.33 kPa
  electrical conductivity: 0.00331 ± 0.0002 S/m
278.15 K, 101.33 kPa
  electrical conductivity: 0.0053 S/m and 0.0052 S/m
283.15 K, 101.33 kPa
  electrical conductivity: 0.00823 S/m and 0.00822 S/m and 0.00807 S/m
288.15 K, 101.33 kPa
  electrical conductivity: 0.0121 ± 0.00073 S/m
288.16 K, 101.33 kPa
  electrical conductivity: 0.0124 S/m
293.15 K, 101.33 kPa
  electrical conductivity: 0.0181 S/m and 0.0182 S/m and 0.0177 S/m
298.15 K, 100 kPa
  electrical conductivity: 0.0263 ± 0.0016 S/m
298.15 K, 101.33 kPa
  electrical conductivity: 0.0257 S/m [middle of 4 runs]
298.15 K, 19600 kPa
  electrical conductivity: 0.0202 ± 0.0012 S/m
298.15 K, 39200 kPa
  electrical conductivity: 0.0154 ± 0.00095 S/m
298.15 K, 49500 kPa
  electrical conductivity: 0.0134 ± 0.00083 S/m
298.15 K, 59100 kPa
  electrical conductivity: 0.0117 ± 0.00072 S/m
298.15 K, 78500 kPa
  electrical conductivity: 0.00918 ± 0.00057 S/m
298.15 K, 98100 kPa
  electrical conductivity: 0.00712 ± 0.00044 S/m
303.15 K, 101.33 kPa
  electrical conductivity: 0.036 S/m and 0.0353 S/m and 0.0358 S/m
308.15 K, 101.33 kPa
  electrical conductivity: 0.0479 S/m and 0.048 S/m
308.16 K, 101.33 kPa
  electrical conductivity: 0.0493 S/m and 0.0489 S/m
313.15 K, 101.33 kPa
  electrical conductivity: 0.0655 S/m and 0.0653 S/m
313.16 K, 101.33 kPa
  electrical conductivity: 0.0659 S/m and 0.0654 S/m
318.15 K, 101.33 kPa
  electrical conductivity: 0.0863 S/m [middle of 4 runs]
323.11 K, 101.33 kPa
  electrical conductivity: 0.108 ± 0.0065 S/m
323.13 K, 101.33 kPa
  electrical conductivity: 0.11 ± 0.0066 S/m
323.15 K, 100 kPa
  electrical conductivity: 0.107 ± 0.0069 S/m
323.15 K, 101.33 kPa
  electrical conductivity: 0.111 S/m
323.15 K, 24200 kPa
  electrical conductivity: 0.0814 ± 0.005 S/m
323.15 K, 49000 kPa
  electrical conductivity: 0.0625 ± 0.0038 S/m
323.15 K, 73500 kPa
  electrical conductivity: 0.0483 ± 0.0029 S/m
323.15 K, 98100 kPa
  electrical conductivity: 0.0375 ± 0.0023 S/m
323.15 K, 122600 kPa
  electrical conductivity: 0.0292 ± 0.0018 S/m
323.15 K, 147100 kPa
  electrical conductivity: 0.0229 ± 0.0014 S/m
323.15 K, 171300 kPa
  electrical conductivity: 0.0181 ± 0.0011 S/m
323.15 K, 196100 kPa
  electrical conductivity: 0.0143 ± 0.0009 S/m
328.11 K, 101.33 kPa
  electrical conductivity: 0.142 ± 0.0085 S/m
328.12 K, 101.33 kPa
  electrical conductivity: 0.141 ± 0.0085 S/m
328.13 K, 101.33 kPa
  electrical conductivity: 0.136 S/m and 0.137 S/m
333.11 K, 101.33 kPa
  electrical conductivity: 0.17 S/m
333.19 K, 101.33 kPa
  electrical conductivity: 0.173 ± 0.01 S/m
338.18 K, 101.33 kPa
  electrical conductivity: 0.209 S/m and 0.21 S/m
343.16 K, 101.33 kPa
  electrical conductivity: 0.254 ± 0.015 S/m
343.17 K, 101.33 kPa
  electrical conductivity: 0.253 ± 0.015 S/m
348.15 K, 100 kPa
  electrical conductivity: 0.29 ± 0.018 S/m
348.15 K, 24500 kPa
  electrical conductivity: 0.233 ± 0.014 S/m
348.15 K, 49300 kPa
  electrical conductivity: 0.188 ± 0.011 S/m
348.15 K, 73500 kPa
  electrical conductivity: 0.152 ± 0.0092 S/m
348.15 K, 98100 kPa
  electrical conductivity: 0.124 ± 0.0075 S/m
348.15 K, 122600 kPa
  electrical conductivity: 0.101 ± 0.0061 S/m
348.15 K, 147100 kPa
  electrical conductivity: 0.083 ± 0.005 S/m
348.15 K, 171600 kPa
  electrical conductivity: 0.0681 ± 0.0041 S/m
348.15 K, 195800 kPa
  electrical conductivity: 0.0562 ± 0.0034 S/m
348.17 K, 101.33 kPa
  electrical conductivity: 0.304 ± 0.018 S/m
348.18 K, 101.33 kPa
  electrical conductivity: 0.303 ± 0.018 S/m
353.17 K, 101.33 kPa
  electrical conductivity: 0.358 S/m and 0.36 S/m
